≈ marks a conversion by molar mass, not a printed value. Read-outs that look alike come from different tables or passages of the source.
Columns and labels:
[1] = test system: murine B-lymphoma WEHI-231 cells; set-up: method as in PMID 9466819; settings: cited from earlier work
[2] = test system: human myeloid HL-60 cells; assay: General cytotoxicity, resazurin viability assay; format: cell-based; settings: for GI50 / MIC: Homo sapiens; for GI50: HL-60, 72 h, resazurin, 24 h + 48 h; for MIC: concentration at which all cells were killed, determined microscopically; for cytotoxicity against the human cells: HL-60, in words
Description: (§1) Trypanocidal, leishmanicidal, and cytotoxic activities of gallic acid alkyl esters were determined with bloodstream forms of T. brucei (clone 427-221a), promastigotes of L. major (strain MHOM/IL/81/Friedlin [51]), and human myeloid HL-60 cell, respectively. The viability of cells was evaluated with the vital dye resazurin as previously described with some modifications. Cells were seeded in 96-well plates in a final volume of 200 μL Baltz medium (T. brucei bloodstream forms and HL-60 cells) or Schneider’s insect medium (L. major promastigotes) supplemented with 16.7% and 10% fetal bovine serum, respectively. Test compounds were assayed at tenfold dilutions starting from 100 μM down up to 100 nM in the presence of 0.9% DMSO. Wells containing medium with 0.9% DMSO alone served as controls. The initial cell densities were 1 × 10^4/mL for T. brucei bloodstream forms, 2.5 × 10^5/mL for L. major promastigotes, and 5 × 10^4/mL for HL-60 cells. The cultures were incubated at 37 °C (T. brucei bloodstream forms and HL-60 cells) and 27 °C (L. major promastigotes) in a humidified atmosphere containing 5% CO2. After 24 h of incubation, 20 µL of a 0.5 mM resazurin solution prepared in sterile PBS was added to each well, and the cultures were incubated for another 48 h. Then, the absorbance of each well was read on a BioTek ELx808 microplate reader using a test wavelength of 570 nm and a reference wavelength of 630 nm. The 50% growth inhibition (GI50) value, i.e., the concentration of a compound necessary to reduce the growth rate of cells by 50% compared to the control, was determined by linear interpolation. The minimum inhibitory concentration (MIC) value, i.e., the concentration of a compound at which all cells were killed, was determined microscopically.

[3] = test system: bloodstream forms of T. brucei; assay: Trypanocidal activity, resazurin viability assay; format: cell-based, Trypanosoma brucei; settings: for GI50 / MIC: Trypanosoma brucei; for MIC: concentration at which all cells were killed, determined microscopically
Description: as §1

Vero cells [4] = test system: Vero cells; set-up: method as in PMID 18797755; settings: cited from earlier work
HL-60 / T. brucei = assay: Selectivity: ratio of cytotoxic to trypanocidal activity; format: cell-based, Trypanosoma brucei; settings: for MIC Ratio: MIC(HL-60)/MIC(T. brucei); for GI50 Ratio: GI50(HL-60)/GI50(T. brucei)
Description: as §1

[5] = test system: promastigotes of L. major; assay: Leishmanicidal activity, resazurin viability assay; format: cell-based, Leishmania major; settings: for inhibition at 100 µM: read-out: Growth Inhibition (% at 100 μM); for GI50: values in brackets; for leishmanicidal activity: in words
Description: as §1

Vero cells [6] = assay: Cytotoxicity against Vero cells quoted from the literature; format: cell-based; settings: for times Vero cells are less sensitive compared with HL-60 cells: GI50(Vero) vs GI50(HL-60); for selectivity: using the Vero cell cytotoxicity as the basis, relative to trypanocidal activity
[7] = test system: T. brucei bloodstream forms; assay: Motility assay with glucose or glycerol as substrate; format: cell-based, Trypanosoma brucei; settings: 55 mM glucose, compound 200 μM, PBS
Description: A culture of bloodstream forms of T. brucei was divided into two equal portions (9 mL) and collected by centrifugation. The cell pellets were resuspended in 1 mL PBS containing 55 mM glucose or 55 mM glycerol. After subsequent centrifugation, the cell pellets were resuspended again in PBS/55 mM glucose and PBS/55 mM glycerol, respectively, and the cell density was adjusted to 2 × 10^6/mL. Then, 100 μL of trypanosomes were mixed with 100 μL PBS/55 mM glucose or 100 μL PBS/55 mM glycerol containing gallic acid alkyl esters at a concentration of 400 μM, giving a final concentration of the esters in the assay of 200 μM. The final concentration of DMSO in each test was 0.9%. The motility of the trypanosomes was examined under the microscope.

T. brucei = settings: cited from earlier work
[8] = 72 h, bloodstream forms clone 427-221a, resazurin, 24 h + 48 h, read-out: T. brucei GI50
[9] = T. brucei bloodstream forms, GI50 expressed in μg/mL, read-out: GI50
[10] = bloodstream forms clone 427-221a
[11] = trypanocidal activity of related phenolic esters

Row | Structure (SMILES) | GI50 [2] [µM] | MIC [2] [µM] | GI50 [3, 8] [µM] | MIC [3, 10] [µM] | MIC Ratio (HL-60 / T. brucei) | MIC ([5]; Leishmania major) [µM] | inhibition at 100 µM ([5]; Leishmania major) [%] | Motility after 5 min [7] | GI50 Ratio (HL-60 / T. brucei) | further results
1 | CCCCCCCCOC(=O)c1cc(O)c(O)c(O)c1 [octyl gallate] | – | – | – | – | – | – | – | – | – | GI50 [1]: 1.5 µM
2 | CCCCOC(=O)c1cc(O)c(O)c(O)c1 [Compound 5, Gallic acid butyl ester] | 74.8 ± 4.5 | > 100 | ~3 | 10 (≈ 2.26 µg/mL) | >10 | 100 (≈ 22.6 µg/mL) | 58 | + + + | – | times less active compared with suramin ([3]; T. brucei bloodstream forms): 10–100 times; GI50 [3, 9]: 0.63 to 0.78 µg/mL; GI50 (Vero cells [4]): 361 µM; GI50 ([5]; Leishmania major): 62.4 µM; times Vero cells are less sensitive compared with HL-60 cells (Vero cells [6]): 4.8 times; selectivity (Vero cells [6]): > 100
3 | CC(C)CCOC(=O)C=Cc1ccc(O)c(O)c1 [caffeic acid isopentyl ester, 3,4-dihydroxycinnamic (caffeic) acid isopentyl ester] | – | – | – | – | – | – | – | – | – | GI50 (T. brucei; [11]): 1.24 µM
4 | CCCOC(=O)c1cc(O)c(O)c(O)c1 [Compound 4, Gallic acid propyl ester] | 82 ± 8.2 | > 100 | ~3 | 10 (≈ 2.12 µg/mL) | >10 | 100 (≈ 21.2 µg/mL) | 61 | + + + | – | times less active compared with suramin ([3]; T. brucei bloodstream forms): 10–100 times; GI50 [3, 9]: 0.63 to 0.78 µg/mL; GI50 (Vero cells [4]): 713 µM; GI50 ([5]; Leishmania major): 50.4 µM; times Vero cells are less sensitive compared with HL-60 cells (Vero cells [6]): 8.7 times; selectivity (Vero cells [6]): > 100
5 | COCCOC(=O)c1cc(O)c(O)c(O)c1 [Compound 8, Gallic acid 2-methoxyethyl ester] | 99.2 ± 9.4 | > 100 | 5.6 ± 1.3 | 100 (≈ 22.8 µg/mL) | >1 | 100 (≈ 22.8 µg/mL) | 47 | + + + | 17.7 | melting point: 152 to 153 °C
6 | O=C(/C=C/c1ccc(O)c(O)c1)OCCc1ccccc1 [caffeic acid phenethyl ester] | – | – | – | – | – | – | – | – | – | GI50 (T. brucei; trypanocidal activity): 0.046 µM
7 | COC(=O)c1cc(O)c(O)c(O)c1 [Compound 1, Gallic acid methyl ester] | > 100 | > 100 | 24.5 ± 4.5 | 100 (≈ 18.4 µg/mL) | >1 | > 100 | 2 | + + + | >4.1 | cytotoxicity against the human cells [2]: no cytotoxicity
8 | CCOC(=O)C=Cc1ccc(O)c(OC)c1 [ferulic acid ethyl ester, 3-methoxy-4-hydroxycinnamic (ferulic) acid ethyl ester] | – | – | – | – | – | – | – | – | – | GI50 (T. brucei; [11]): 110 µM
9 | CC(C)OC(=O)c1cc(O)c(O)c(O)c1 [Compound 3, Gallic acid isopropyl ester] | 87.9 ± 8.2 | > 100 | 8.4 ± 2.2 | 100 (≈ 21.2 µg/mL) | >1 | > 100 | 34 | + + + | 10.5 | –
10 | Cc1ccc(C(=O)Nc2ccc(S(=O)(=O)O)c3cc(S(=O)(=O)O)cc(S(=O)(=O)O)c23)cc1NC(=O)c1cccc(NC(=O)Nc2cccc(C(=O)Nc3cc(C(=O)Nc4ccc(S(=O)(=O)O)c5cc(S(=O)(=O)O)cc(S(=O)(=O)O)c45)ccc3C)c2)c1 [Suramin, reference compound] | > 100 | > 100 | 0.04 | 1 (≈ 1.3 µg/mL) | >100 | – | – | – | >2500 | times higher GI50 ratio than gallic acid alkyl esters 4, 5, and 6 (HL-60 / T. brucei): 100 times; times higher MIC ratio than gallic acid alkyl esters 4, 5, and 6 (HL-60 / T. brucei): 10 times
11 | CCCCCOC(=O)c1cc(O)c(O)c(O)c1 [Compound 7, Gallic acid pentyl ester] | > 100 | > 100 | 32.8 ± 0.9 | 100 (≈ 24 µg/mL) | >1 | > 100 | 0 | + + + | >3.0 | cytotoxicity against the human cells [2]: no cytotoxicity; melting point: 94 to 96 °C; leishmanicidal activity [5]: no leishmanicidal activity
12 | C[C@@H]1[C@H](O)[C@@H](C)/C=C/C=C/C=C/C=C/C=C/C=C/C=C/[C@H](O[C@@H]2O[C@H](C)[C@@H](O)[C@H](N)[C@@H]2O)C[C@@H]2O[C@](O)(C[C@@H](O)C[C@@H](O)[C@H](O)CC[C@@H](O)C[C@@H](O)CC(=O)O[C@H]1C)C[C@H](O)[C@H]2C(=O)O [Amphotericin B, reference compound] | – | – | – | – | – | 0.1 (≈ 0.0924 µg/mL) | – | – | – | inhibition at 10 µM ([5]; Leishmania major, at 10 μM, read-out: Growth Inhibition (%)): 100%; GI50 ([5]; Leishmania major): 0.04 µM
13 | CCOC(=O)c1cc(O)c(O)c(O)c1 [Compound 2, Gallic acid ethyl ester] | > 100 | > 100 | 27.9 ± 2.4 | 100 (≈ 19.8 µg/mL) | >1 | > 100 | 0 | + + + | >3.6 | cytotoxicity against the human cells [2]: no cytotoxicity; leishmanicidal activity [5]: no leishmanicidal activity
14 | O=C(O)c1cc(O)c(O)c(O)c1 [gallic acid, 3,4,5-trihydroxybenzoic acid] | – | – | – | – | – | – | – | – | – | GI50 (T. brucei; trypanocidal activity of the reactant): 14.2 µM
15 | CC(C)CCOC(=O)c1cc(O)c(O)c(O)c1 [Compound 6, Gallic acid isopentyl ester] | 90.4 ± 21.6 | > 100 | ~3 | 10 (≈ 2.4 µg/mL) | >10 | 100 (≈ 24 µg/mL) | 45 | + + + | – | times less active compared with suramin ([3]; T. brucei bloodstream forms): 10–100 times; GI50 [3, 9]: 0.63 to 0.78 µg/mL
16 | CCCCCCCCCCCCOC(=O)c1cc(O)c(O)c(O)c1 [dodecyl gallate] | – | – | – | – | – | – | – | – | – | GI50 [1]: 1 µM
